Experimental data: US20020086835A1, “Use of adenosine deaminase inhibitors to treat systemic inflammatory response syndrome” (priority 2000, published 2002)
Where “and” joins values, the source holds several entries; their conditions need not be identical. Equal entries are not always repeated.

Tests used:
[1] = human blood; cited from earlier work
TNF-α [2] = test: Serum TNF-α by ELISA in rats with chronic peritoneal sepsis (200 mg/kg cecal slurry ip); assay type: in vivo, rat; conditions: septic rats; for Effect on serum TNF-α response to sepsis at 4 hours / Effect on serum TNF-α response to sepsis at 24 hours: versus saline-treated septic group
Description: (§1) Studies were conducted to determine if manipulation of adenosine-mediated events would result in alterations in the TNF-α response in this model. At the time of sepsis induction, rats were treated in one of four ways. One group received only 0.9% normal saline as a vehicle control (No Rx; n=6). […] The third group received the adenosine deaminase inhibitor, erythro-9-(2-hydroxy-3-nonyl)adenine (EHNA; 1 μmole/kg+1 μmole/kg/hr; iv; n=3). A fourth group received the adenosine receptor antagonist 8-sulfophenyltheophylline (SPT; 400 μg/kg/8 hours; n=5).
(§2) Sepsis was induced under pentobarbital anesthesia (50 mg/kg) in each rat by intraperitoneal (ip) injection of 200 mg/kg rat cecal contents mixed as a slurry in 5% dextrose in water (D5W). […] Non-septic controls received an equivalent volume ip injection of D5W. Polyethylene catheters (Intramedic PE-50, Baxter) were inserted into the right internal jugular vein and right carotid artery. The jugular catheter was used for venous access (drug infusions; volume replacement, etc). The carotid catheter was used to obtain arterial blood samples, and to monitor arterial blood pressure and heart rate. The catheters were secured in their respective vessels, tunneled subcutaneously to exit in the interscapular region, and filled with heparinized saline (50 units/ml 0.9% normal saline). Incisions were closed in layers using 3-0 silk. Rats were allowed to recover from anesthetic and provided food and water ad libitum,
Serum and tissue tumor necrosis factor-α (TNF-α) concentrations were determined by enzyme-linked immunosorbant assay. Samples of serum, liver, and spleen were collected, rapidly weighed, and frozen in liquid nitrogen. On the day of assay, tissues are added to labeled tubes containing lysis buffer (volume=10 ml/gram wt. with 1:10 dilution) and kept on ice. The lysis buffer is 20 mM Tris (pH 7.4) containing […] phenylmethylsulfonylflouride (PMSF), […] leupeptin, 0.7 g/ml pepstatin, and 2.0 g/ml aprotinin to inhibit proteases. Samples were immediately homogenized using five 3 see bursts, washing grinding pistol (3×) between samples with phosphate buffered saline. Samples are then centrifuged for 20 min at 2200 RPM, 4° C. The supernatant was removed and used for TNF-α measurements. Briefly, each microplate well contained 50 μl of assay diluent. To each well, 50 μl of standard, control, or serum/homogenate supernatant sample were added and mixed on an orbital plate shaker. Plates were incubated at room temperature for 2 hours. Each well was then aspirated and washed with wash buffer 4 times. After final aspiration of wash buffer, 100 μl of rat TNF-α conjugate was added to each well. Wells were then covered and incubated for 2 hours at room temperature. At the end of the incubation, the aspiration/wash procedure was repeated 4 times, after which 100 μl of stabilized chromogen solution was added to each well. Next, plates were incubated for 45 minutes at room temperature in a dark area. After this final incubation period, 100 μl stopping solution was added to each well. Optical density of each well at […] was determined within 30 minutes using a Biotek Instruments EL312e microtiter plate reader. Concentrations of TNF-α were calculated from the standard curves.
At the time of sepsis induction, rats were treated in one of three ways. One group received only 0.9% normal saline as a vehicle control (VEH, n=6, where n is the number of rats). […] A third group received the adenosine receptor antagonist, 8-sulfophenyltheo-phylline (SPT; 400 μg/kg/8 h; n=5). Serum TNF-α (pg/ml) was determined at 4 and 24 hours after sepsis induction by ELISA.
Male SD rats (350-400 g) were made septic by IP introduction of a 200 mg/kg cecal slurry. […] TNF-α (pg/ml) was determined at 4 and 24 hours after sepsis induction by ELISA.

adenosine deaminase [3] = conditions: in perfusion medium, in the presence of 5′-amino-5′-deoxyadenosine; cited from earlier work
adenosine deaminase [4] = target: T1, adenosine deaminase (Homo sapiens, UniProt P00813); conditions: read-out: Inhibitory constant for adenosine deaminase; cited from earlier work
T1 sequence (P00813 1-363): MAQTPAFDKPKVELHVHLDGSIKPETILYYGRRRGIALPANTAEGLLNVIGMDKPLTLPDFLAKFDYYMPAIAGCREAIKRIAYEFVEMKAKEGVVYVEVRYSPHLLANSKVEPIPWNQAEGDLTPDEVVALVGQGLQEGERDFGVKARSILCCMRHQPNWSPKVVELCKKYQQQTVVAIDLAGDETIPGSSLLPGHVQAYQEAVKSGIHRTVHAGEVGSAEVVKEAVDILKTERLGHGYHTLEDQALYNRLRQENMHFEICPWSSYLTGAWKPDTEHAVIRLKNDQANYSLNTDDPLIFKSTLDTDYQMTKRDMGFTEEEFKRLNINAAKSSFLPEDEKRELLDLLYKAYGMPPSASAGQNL

adenosine deaminase [5] = target: T1, adenosine deaminase; conditions: potency of inhibition of the enzyme
SIRS rats = test: Survival up to 6 days after SIRS induction secondary to sepsis (FIG. 15); assay type: in vivo, rat; conditions: 1 mg/kg
Description: All rats received 50 ml/kg 0.9% normal saline iv 2 hours after SIRS induction.
Inhibition of up to 100% can be maintained for no more than 3 consecutive days, after which ADA activity should be allowed to return to at least 50% of baseline values before another dose of the inhibitor can be given. […] One-two hours after administration of a starting dose of the inhibitor, adenosine deaminase activity can be measured in various bodily fluids, tissues, dialysates, or cells by spectrophotometric methods according to the method of Vielh and Castellazzi, or other appropriate measurement that provides information regarding ADA enzyme activity. Measurement of adenosine deaminase activity can also be used to monitor the return of ADA activity after therapeutic inhibition for the treatment or prevention of SIRS.

sTNFRI or p55 = test: Circulating soluble TNF receptor I in fluid-resuscitated sepsis-induced SIRS; assay type: in vivo, rat; conditions: 24 hours after SIRS induction; 1 mg/kg pentostatin 2 hours after induction
Description: (§3) SIRS was induced secondary to sepsis by ip introduction of […] cecal matter in 5 ml/kg D5W.
(§4) It is increasingly apparent that feedback between pro and anti-inflammatory processes is critically important to the clinical outcome from SIRS, as taught by Bone (Bone, 1996). The balance between complementary pro-and anti-inflammatory molecules is typified by TNF α and its soluble receptors, sTNF types I and II. The ability of ADA inhibition to restore balance to these complimentary molecules in the SIRS responses was tested with a more clinically relevant addition of fluid resuscitated sepsis. […] Further evidence of a complex, modulatory mode of action is indicated by IL-10 concentrations in the liver and spleen.

sTNFRII or p75 = test: Circulating soluble TNF receptor II in fluid-resuscitated sepsis-induced SIRS; assay type: in vivo, rat; conditions: 24 hours after SIRS induction; 1 mg/kg pentostatin 2 hours after induction
Description: as §3, §4

septic rats [6] = test: Blood pressure and heart rate in septic rats; conditions: chronic treatment
Description: as §1
as §2, with “The catheters were secured in their respective vessels, tunneled subcutaneously to exit in the interscapular region, and filled with heparinized saline (50 units/ml 0.9% normal saline). Incisions were closed in layers using 3-0 silk. Rats were allowed to recover from anesthetic and provided food and water ad libitum,” left out
(§5) At the time of sepsis induction, rats were treated in one of three ways. […] Serum TNF-α (pg/ml) was determined at 4 and 24 hours after sepsis induction by ELISA.

TNF-α [7] = test: Serum TNF-α in fluid-resuscitated sepsis-induced SIRS; assay type: in vivo, rat; conditions: 24 hours after SIRS induction, 1 mg/kg pentostatin 2 hours after induction
Description: as §3, §4
Serum and tissue tumor necrosis factor-α (TNF-α) concentrations were determined by enzyme-linked immunosorbant assay. Samples of serum, liver, and spleen were collected, rapidly weighed, and frozen in liquid nitrogen. On the day of assay, tissues are added to labeled tubes containing lysis buffer (volume=10 ml/gram wt. with 1:10 dilution) and kept on ice. […] Optical density of each well at […] was determined within 30 minutes using a Biotek Instruments EL312e microtiter plate reader. Concentrations of TNF-α were calculated from the standard curves.

[8] = system: lipid peroxidation (TBARS); test: Thiobarbituric acid reactive substances (TBARS) in jejunum of septic rats; conditions: 24 hours, versus saline (No Rx)
septic rats [9] = test: Capillary leakage: examination of peritoneal cavity and bowel of septic rats; assay type: in vivo, rat
septic rats [10] = test: Survival of septic rats to day 3; assay type: in vivo, rat; conditions: pentostatin 5 mg/kg/12 h; 8-SPT 400 μg/kg/8 h; 3 days post-sepsis
Description: as §1
as §2, with “The catheters were secured in their respective vessels, tunneled subcutaneously to exit in the interscapular region, and filled with heparinized saline (50 units/ml 0.9% normal saline). Incisions were closed in layers using 3-0 silk. Rats were allowed to recover from anesthetic and provided food and water ad libitum,” left out
as §5

IL-6 = test: Serum IL-6 in fluid-resuscitated sepsis-induced SIRS; assay type: in vivo, rat; conditions: 24 hours after SIRS induction, 1 mg/kg pentostatin 2 hours after induction
Description: as §3, §4

IL-10 = IL-10 in serum, liver and spleen in fluid-resuscitated SIRS; assay type: in vivo, rat; conditions: pentostatin treatment
Description: as §3, §4

TNF-α, IL-1 beta, IL-10 = test: Cytokine concentrations after ip E coli endotoxin (LPS), pentostatin dose response (FIG. 16); assay type: in vivo, rat; conditions: response to 2 mg/kg LPS (endotoxin), 2 hours after ip injection
Excerpt: Lower doses than this were unable to consistently suppress TNF-α and IL-1 beta with concommittant stimulation of the anti-inflammatory cytokine, IL-10.

Nc1ncnc2c1ncn2[C@@H]1O[C@H](CO)[C@@H](O)[C@H]1O [Adenosine]
Half life [1]: < 1 s

CCCCCCC(C(C)O)n1cnc2c(N)ncnc21 (stereo not drawn) [EHNA, erythro-9-(2-hydroxy-3-nonyl)adenine]
Effect on serum TNF-α response to sepsis at 4 hours (TNF-α [2]; 4 hours): attenuation of this response
Effect on serum TNF-α response to sepsis at 24 hours (TNF-α [2]; 24 hours): attenuation of this response
Increase of adenosine release (adenosine deaminase [3]): 15 fold
Ki (adenosine deaminase [4]): 1 nM
Activity relative to pentostatin (times less active) (adenosine deaminase [5]): one thousand

OC[C@H]1O[C@@H](n2cnc3c2NC=NC[C@H]3O)C[C@@H]1O [pentostatin, (R)-3-(2-deoxy-beta-D-erythropentofuranosyl)-3,6,7,8-tetrahydro-imidazo[4,5-d]-[1,3] diazepin-8-ol]
Effect on serum TNF-α response to sepsis at 4 hours (TNF-α [2]; 4 hours): attenuation of this response
Effect on serum TNF-α response to sepsis at 24 hours (TNF-α [2]; 24 hours): attenuation of this response
Serum TNF-α at 4 hours after sepsis induction (TNF-α [2]; treated at time of sepsis induction, 4 hours): 592 ± 62 pg/mL
Serum TNF-α at 24 hours after sepsis induction (TNF-α [2]; treated at time of sepsis induction, 24 hours): 671 ± 175 pg/mL
Mortality in SIRS model (SIRS rats): effective in reducing mortality
Circulating sTNFRI (p55) (sTNFRI or p55): 4624 ± 404 pg/mL
Circulating sTNFRII (p75) (sTNFRII or p75): 16525 ± 1226 pg/mL
Blood pressures or heart rates versus saline-treated septic rats (septic rats [6]): neither the groups treated with pentostatin nor the groups treated with 8-SPT were blood pressures or heart rates significantly different
Serum TNF-α (TNF-α [7]): 20.3 ± 14.8 pg/mL
Jejunum tissue TBARS during sepsis [8]: diminution of tissue TBARS
Capillary leakage (septic rats [9]): amelioration of capillary leakage
Small bowel hemorrhage (septic rats [9]): little to no evidence of small bowel hemorrhage
Volume of fluid in the peritoneal cavity (septic rats [9]; untreated 2-3 ml): 0 to 1 mL
Septic rats surviving to day 3 (septic rats [10]): 4 of the 5 and 4 of 5
Serum IL-6 (IL-6): 5525 ± 1435 pg/mL
Serum concentrations of IL-10 (IL-10; FIG. 14(A)): unaffected
IL-10 concentrations in the liver and spleen (IL-10; FIG. 14(B) and 14(C)): elevated
Dose with maximal effect on modulating cytokine concentrations (TNF-α, IL-1 beta, IL-10): 1 mg/kg
